Measured values taken from article PMC5004178, “A novel inhibitory effect of oxazol-5-one compounds on ROCKII signaling in human coronary artery vascular smooth muscle cells” (Scientific Reports, 2016).

Molecular target: T1, ROCKII (Homo sapiens, UniProt O75116)
T1 construct: gene ROCK2; ROCKII(5–554), constitutively active recombinant
Test: […]-phosphoryl transfer kinase assay with LC20 peptide; steady-state kinetics
Format: biochemical

T1 sequence (O75116 5-554): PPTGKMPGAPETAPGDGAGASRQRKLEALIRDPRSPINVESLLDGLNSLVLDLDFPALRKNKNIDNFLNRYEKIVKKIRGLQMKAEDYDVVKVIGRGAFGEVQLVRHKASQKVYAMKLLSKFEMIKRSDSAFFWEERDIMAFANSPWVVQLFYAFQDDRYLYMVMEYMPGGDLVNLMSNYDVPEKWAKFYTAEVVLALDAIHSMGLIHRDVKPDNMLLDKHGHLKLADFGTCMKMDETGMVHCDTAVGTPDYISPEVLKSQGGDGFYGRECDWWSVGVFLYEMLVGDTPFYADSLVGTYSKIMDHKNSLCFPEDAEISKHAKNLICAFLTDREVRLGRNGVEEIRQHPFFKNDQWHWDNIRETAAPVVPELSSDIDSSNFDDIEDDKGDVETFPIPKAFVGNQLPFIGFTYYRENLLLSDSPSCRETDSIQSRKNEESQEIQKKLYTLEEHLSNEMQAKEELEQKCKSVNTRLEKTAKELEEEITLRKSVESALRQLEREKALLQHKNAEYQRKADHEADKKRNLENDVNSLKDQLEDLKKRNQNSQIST

O=C1OC(c2ccc(Cl)c([N+](=O)[O-])c2)=N/C1=C\c1cccnc1 [DI, (4Z)-2-(4-chloro-3-nitrophenyl)-4-(pyridin-3-ylmethylidene)-1,3-oxazol-5-one]
Ki: 132 nM
